Assays:
[1] = test system: PCP-induced hyperlocomotion; assay: Mouse PCP-induced hyperlocomotion; format: in vivo; conditions: ddy male mice, PCP 10 mg/kg s.c.
[2] = test system: Prepulse Inhibition (PPI); assay: Startle response in rat prepulse inhibition (PPI) model; format: in vivo; conditions: SD male rats
Source text: Further, the fact that there is no risk, in the above-described compound or a pharmaceutically acceptable acid addition salt thereof, of causing impaired information processing related to cognitive deficiencies which is a symptom of schizophrenia can be confirmed by investigating the effect of the compound on the phenomenon wherein the startle response to a startle stimulus (pulse) in an animal is inhibited by presentation of a weak stimulus (prepulse) prior to presentation of a startle stimulus (pulse) (Prepulse Inhibition, PPI) according to the method described in Bio. Psychiatry., 57, 1550, 2005. In this method, inhibition of PPI indicates abnormality in information processing, and is known to reflect cognitive deficiencies, which is a symptom of schizophrenia, and the like.
In the experiments, 8 SD male rats of 9 to 10 weeks old were used per each group. The measurement was carried out using an apparatus for measuring startle responses of small animals (San Diego Instruments). […]

For `CN(C(=O)/C=C/c1ccoc1)[C@@H]1CC[C@@]2(O)[C@H]3Cc4ccc(O)c5c4[C@@]2(CCN3CC2CC2)[C@H]1O5.Cl` [Compound 1, (−)-17-(Cyclopropylmethyl)-3,14β-Dihydroxy-4,5α-Epoxy-6β-[N-Methyl-Trans-3-(3-Furyl)Acrylamido]Morphinan Hydrochloric Acid Salt], the “dose statistically significantly inhibiting PCP-induced hyperlocomotion” value ([1]; test compound s.c. 1 minute before PCP, locomotor counts, vs vehicle-administered group) was no less than 0.01 mg/kg and the “effect on PPI (% Prepulse Inhibition)” value ([2]; 0.03 mg/kg s.c., 30 minutes before stimulation session, 80 dB prepulse, 120 dB pulse) was “did not inhibit PPI”.
In the case of `C=C1CC[C@@]2(O)[C@H]3Cc4ccc(O)c5c4[C@@]2(CCN3CC2CC2)[C@H]1O5` [Nalmefene], the “effect on the amount of locomotion (PCP-induced hyperlocomotion)” value ([1]; test compound at 10 mg/kg s.c.) is reported as “did not have any effect”.
`c1ccc(C2(N3CCCCC3)CCCCC2)cc1` [Phencyclidine] was tested, and the “effect on PPI (% Prepulse Inhibition)” value ([2]; positive control at 4 mg/kg, p<0.05 against the vehicle-administered group) was “statistically significant inhibitory effect on PPI”.

Source: patent US8183256B2, “Remedy or preventive for integration dysfunction syndrome” (Toray Industries, Inc., priority 2008, dated 2012)
